{"source": "patent US7235547B2", "about": "“Pharmaceutical composition comprising an AChE inhibitor and a mGluR2 antagonist” (priority 2003, dated 2007)", "tested_on": "scopolamine-induced working memory deficit", "assay": "scopolamine-induced working memory deficit in the delayed match to position (DMTP) task in rats", "type": "in vivo, Male Lister Hooded rats", "settings": "for effect on the scopolamine deficit in DMTP task (percent correct responses): combination: Compound 23 1 mg/kg p.o. 180 min prior to testing, donepezil hydrochloride 1 mg/kg p.o. 145 min later, scopolamine 0.06 mg/kg s.c. 5 min later", "note": "Where a name gives a salt, the structure may show the parent alone.", "experimental": "Except for during testing, water was available ad libitum at all times. The rats were tested in Med Associates operant chambers, equipped with 2 retractable levers positioned 7.5 cm either side of a central food tray. A single stimulus light (cue light) was positioned above each lever. Aluminum barriers (5.5 cm chamber extension) were fitted within the chamber to separate each lever from the food magazine. The chambers were controlled by Kestrel software (Conclusive Solutions, Harlow, UK) operating on an IBM compatible PC.\nRats were initially trained to lever press for a food reward (45 mg Formula ‘P’ pellet, Noyes, N.H.) on a continuous reinforcement (CRF) schedule with each lever presented singly an equal number of times (total 96 trials). On acquiring this behaviour the animals were next trained to make a matching response. Each trial consisted of a single lever being inserted into the chamber and the illumination of the appropriate stimulus light (sample stage). The rat was required to press the sample lever, which then immediately retracted. […] If the animal pressed the other lever, it was recorded as an incorrect response and was unrewarded. […] The next trial was signalled by illumination of the house light for a 5 s period, after which the sample lever was extended. The number of such trials per session was 96.\nInitially, the delay between the sample and choice stage was 1 s after the first magazine nose poke. Once the animals had learned the matching rule (≧90% correct), the delay period was increased to 1, 2 and 4 s (32 trials per delay), up to a final level of 1, 2, 4, 8, 16, 24s. Sixteen trials were run at each delay. […] The parameters measured include % correct (total no. correct/(total no. correct+incorrect)×100) both for the total session and for each delay interval. Percent correct responses at each delay interval were analysed using an analysis of variance (ANOVA) with repeated measures on Treatment and Delay. Total percent correct responses were analysed using an ANOVA with repeated measures on Treatment. Post hoc tests were conducted by Newman-Keuls test. Statistical significance was accepted at P<0.05.\nThe experiment was conducted using a repeated measures design with each animal receiving each treatment according to a counterbalanced design. Animals were run 5 days/-week, with drug treatment on 2 test days per week, separated by at least 2 days. […] Scopolamine hydrobromide was dissolved in saline solution and was administered s.c. using an injection volume of 1 ml/kg.", "data": [{"smiles": "Cc1cc(-c2cccc(C3=Nc4cc(C)c(C(F)(F)F)cc4NC(=O)C3)c2)cc(C)n1", "note": "[Compound 23, 4-[3-(2,6-dimethyl-pyridin-4-yl)-phenyl]-7-methyl-8-trifluoromethyl-1,3-dihydro benzo[b][1,4]diazepin-2-one]", "values": [{"measurement": "effect on the scopolamine deficit in DMTP task (percent correct responses)", "result": "reversal of the scopolamine deficit"}]}, {"smiles": "COc1cc2c(cc1OC)C(=O)C(CC1CCN(Cc3ccccc3)CC1)C2", "note": "(stereo not shown) [donepezil hydrochloride]", "values": [{"measurement": "effect on the scopolamine deficit in DMTP task (percent correct responses)", "result": "reversal of the scopolamine deficit"}]}, {"smiles": "CN1[C@@H]2C[C@@H](OC(=O)[C@H](CO)c3ccccc3)C[C@H]1[C@@H]1O[C@@H]12", "note": "[Scopolamine, Scopolamine hydrobromide]", "values": [{"measurement": "total correct responses collapsed over the delay intervals", "setting": "scopolamine 0.06 mg/kg s.c.", "result": "significant reduction"}, {"measurement": "percent correct responses (per delay interval)", "setting": "scopolamine 0.06 mg/kg s.c., delays 1-24 s", "result": "significant delay-dependent reduction"}]}]}
